# Results as given in patent US11420947B2, “(S)-n-hydroxy-2-(2-(4-methoxyphenyl)butanamido)thiazole-5-carboxamide and pharmaceutically acceptable salts thereof” (TRANSLATIONAL DRUG DEVELOPMENT, LLC, priority 2018, dated 2022).
# Key:
# Experiment in all cases: CellTiter-Glo cell viability assay
# MeWo = type: cell-based; settings: for IC50: Homo sapiens, MeWo, MELANOMA, LN Met, 72 hours
# Outline: (§1)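 Seed 2.5×10^3–5×10^3 cells/well (Day 0); treat from Day 1 for 72 h; remove drug media; add CellTiter-Glo, incubate 37° C; read luminescence; normalise to vehicle.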
# G401 = type: cell-based; settings: for IC50: Homo sapiens, G-401, G401, RENAL, Rhabdoid Tumor, 72 hours
# Outline: as §1
# ASPC-1 = type: cell-based; settings: for IC50: Homo sapiens, ASPC1, ASPC-1, PANCREAS, Pancreatic, 72 hours
# Outline: as §1
# Raji = type: cell-based; settings: for IC50: Homo sapiens, Raji, HEMATOPIETIC, Burkitt’s, 72 hours
# Outline: as §1
# NCI-H226 = type: cell-based; settings: for IC50: Homo sapiens, NCI-H226, LUNG, Mesothelioma, 72 hours
# Outline: as §1
# IGROV-1 = type: cell-based, Human; settings: for IC50: IGROV-1, OVARIAN, Human Ovarian Adenocarcinoma, 72 hours
# Method: (§2) Cell viability in the presence of varying concentrations of the above listed compounds at different time points was used to assess cytotoxicity and the effect of the compounds on cell proliferation.
# (§3) Cell viability was measured by the CellTiter-Glo® cell viability assay from Promega (Madison, Wis.). The CellTiter-Glo® Luminescent Cell Viability Assay is a homogeneous method to determine the number of viable cells in culture based on quantitation of the ATP present, which signals the presence of metabolically active cells. Following treatment, CellTiter-Glo® is added to treatment wells and incubated at 37° C. luminescence values were measured at using a Molecular Devices Spectramax microplate reader
# (§4) Cells were grown to 70% confluency, trypsinized, counted, and seeded in 96 well flat-bottom plates at a final concentration of 2.5×10^3-5×10^3 cells/well (Day 0). Cells were allowed to incubate in growth media for 24 hours. Treatment with the test agents or standard agents began on Day 1 and continued for 72 hours. At the 72-hour timepoint, treatment containing media was removed. Viable cell numbers are quantified by the CellTiter-Glo® cell viability assay as described above. Results from these studies were used to calculate an IC50 value (concentration of drug that inhibits cell growth by 50 percent of control) for each compound.
# (§5) For single agent and combination studies, data from each experiment was collected and expressed as % Cell Growth using the following calculation: % Cell Growth=(ftest/fvehicle)×100
# (§6) Where test is the fluorescence of the tested sample, and fvehicle is the fluorescence of the vehicle in which the drug is dissolved. Dose response graphs and IC50 values were generated using Prism 6 software (GraphPad) using the following equation: Y=(Top-Bottom)/(1+10^((logIC^50^-X)-HillSlope))
# A2780 = type: cell-based, Human; settings: for IC50: A2780, OVARIAN, Human Ovarian, 72 hours
# Method: as §2, §3, §4, §5, §6
# A2780cp = type: cell-based, Human; settings: for IC50: A2780C/P, A2780cp, OVARIAN, Platinum res-Human Ovarian, 72 hours
# Method: as §2, §3, §4, §5, §6
# OVCAR-8 = type: cell-based, Human; settings: for IC50: OVCAR-8, OVARIAN, Human Ovarian Carcinoma, 72 hours
# Method: as §2, §3, §4, §5, §6
# BIN-67 = type: cell-based, Human; settings: for IC50: BIN-67, OVARIAN, Human Small Cell Carcinoma of the Ovary, 72 hours
# Method: as §2, §3, §4, §5, §6
# SCCOHT-1 = type: cell-based, Human; settings: for IC50: SCCOHT-1, OVARIAN, Human Small Cell Carcinoma of the Ovary, 72 hours
# Method: as §2, §3, §4, §5, §6
# OVCAR-3 = type: cell-based, Human; settings: for IC50: OVCAR-3, OVARIAN, Human Ovarian Carcinoma, 72 hours
# Method: as §2, §3, §4, §5, §6
# SKOV-3 = type: cell-based, Human; settings: for IC50: SK-OV-3, SKOV-3, OVARIAN, Human Ovarian Carcinoma, 72 hours
# Method: as §2, §3, §4, §5, §6
# COV434 = type: cell-based, Human; settings: for IC50: COV434, OVARIAN, Human Ovarian Granulosa, 72 hours
# Method: as §2, §3, §4, §5, §6
# CT26 = type: cell-based, Murine; settings: for IC50: Mus musculus, CT26, MURINE COLON, Colon, 72 hours
# Method: as §2, §3, §4, §5, §6
# GL261 = type: cell-based, Murine; settings: for IC50: Mus musculus, GL261, MURINE BRAIN, Murine Glioma, 72 hours
# Method: as §2, §3, §4, §5, §6
# MC38 = type: cell-based, Murine; settings: for IC50: Mus musculus, MC-38, MC38, MURINE COLON, Colon, 72 hours
# Method: as §2, §3, §4, §5, §6
# 4T1 = type: cell-based, Murine; settings: for IC50: Mus musculus, 4T1, BREAST, Murine Breast Tumor, 72 hours
# Method: as §2, §3, §4, §5, §6
# L1210 = type: cell-based, Murine; settings: for IC50: Mus musculus, L1210, HEMATOPIETIC, Murine Leukemia, 72 hours
# Method: as §2, §3, §4, §5, §6
smiles,measurement,setting,value
"CC[C@@H](C(=O)Nc1ncc(C(=O)NO)s1)c1ccc(OC)cc1 [#1b, (R)—N-hydroxy-2-(2-(4-methoxyphenyl)butanamido)thiazole-5-carboxamide]",IC50,MeWo,612 nM
same,IC50,G401,407 nM
same,IC50,ASPC-1,813 nM
same,IC50,Raji,282 nM
same,IC50,NCI-H226,1690 nM
same,IC50,IGROV-1,490 nM
same,IC50,A2780,219 nM
same,IC50,A2780cp,378 nM
same,IC50,OVCAR-8,113 nM
same,IC50,BIN-67,450 nM
same,IC50,SCCOHT-1,185 nM
same,IC50,OVCAR-3,244 nM
same,IC50,SKOV-3,509 nM
same,IC50,COV434,339 nM
same,IC50,CT26,3210 nM
same,IC50,GL261,1200 nM
same,IC50,MC38,493 nM
same,IC50,4T1,185 nM
same,IC50,L1210,324 nM
"CC[C@H](C(=O)Nc1ncc(C(=O)NO)s1)c1ccc(OC)cc1 [#1a, (S)—N-hydroxy-2-(2-(4-methoxyphenyl)butanamido)thiazole-5-carboxamide]",IC50,MeWo,83 nM
same,#1/#1a,"MeWo; ratio of IC50, MeWo",1.9
same,#1b/#1a,"MeWo; ratio of IC50, MeWo",7.37
same,IC50,G401,50 nM
same,#1/#1a,"G401; ratio of IC50, G401",1.82
same,#1b/#1a,"G401; ratio of IC50, G401",8.14
same,IC50,ASPC-1,112 nM
same,#1/#1a,"ASPC-1; ratio of IC50, ASPC-1",1.41
same,#1b/#1a,"ASPC-1; ratio of IC50, ASPC-1",7.26
same,IC50,Raji,36 nM
same,#1/#1a,"Raji; ratio of IC50, Raji",2.92
same,#1b/#1a,"Raji; ratio of IC50, Raji",7.83
same,IC50,NCI-H226,200 nM
same,#1/#1a,"NCI-H226; ratio of IC50, NCI-H226",2.4
same,#1b/#1a,"NCI-H226; ratio of IC50, NCI-H226",8.44
same,IC50,IGROV-1,54 nM
same,#1/#1a,"IGROV-1; ratio of IC50, IGROV-1",1.44
same,#1b/#1a,"IGROV-1; ratio of IC50, IGROV-1",9.07
same,IC50,A2780,32 nM
same,#1/#1a,"A2780; ratio of IC50, A2780",1.5
same,#1b/#1a,"A2780; ratio of IC50, A2780",6.84
same,IC50,A2780cp,62 nM
same,#1/#1a,"A2780cp; ratio of IC50, A2780cp",1.89
same,#1b/#1a,"A2780cp; ratio of IC50, A2780cp",6.1
same,IC50,OVCAR-8,21 nM
same,#1/#1a,"OVCAR-8; ratio of IC50, OVCAR-8",1.71
same,#1b/#1a,"OVCAR-8; ratio of IC50, OVCAR-8",5.38
same,IC50,BIN-67,51 nM
same,#1/#1a,"BIN-67; ratio of IC50, BIN-67",1.33
same,#1b/#1a,"BIN-67; ratio of IC50, BIN-67",8.82
same,IC50,SCCOHT-1,293 nM
same,#1/#1a,"SCCOHT-1; ratio of IC50, SCCOHT-1",1.16
same,#1b/#1a,"SCCOHT-1; ratio of IC50, SCCOHT-1",0.63
same,IC50,OVCAR-3,39 nM
same,#1/#1a,"OVCAR-3; ratio of IC50, OVCAR-3",1.67
same,#1b/#1a,"OVCAR-3; ratio of IC50, OVCAR-3",6.26
same,IC50,SKOV-3,63 nM
same,#1/#1a,"SKOV-3; ratio of IC50, SKOV-3",1.79
same,#1b/#1a,"SKOV-3; ratio of IC50, SKOV-3",8.08
same,IC50,COV434,35 nM
same,#1b/#1a,"COV434; ratio of IC50, COV434",9.69
same,IC50,CT26,465 nM
same,#1/#1a,"CT26; ratio of IC50, CT26",2.83
same,#1b/#1a,"CT26; ratio of IC50, CT26",6.91
same,IC50,GL261,132 nM
same,#1/#1a,"GL261; ratio of IC50, GL261",2.82
same,#1b/#1a,"GL261; ratio of IC50, GL261",9.11
same,IC50,MC38,58 nM
same,#1/#1a,"MC38; ratio of IC50, MC38",2.21
same,#1b/#1a,"MC38; ratio of IC50, MC38",8.5
same,IC50,4T1,23 nM
same,#1/#1a,"4T1; ratio of IC50, 4T1",1.57
same,#1b/#1a,"4T1; ratio of IC50, 4T1",8.04
same,IC50,L1210,38 nM
same,#1/#1a,"L1210; ratio of IC50, L1210",1.55
same,#1b/#1a,"L1210; ratio of IC50, L1210",8.53
"CCC(C(=O)Nc1ncc(C(=O)NO)s1)c1ccc(OC)cc1 (racemic) [#1, N-hydroxy-2-(2-(4-methoxyphenyl)butanamido)thiazole-5-carboxamide]",IC50,MeWo,158 nM
same,IC50,G401,91 nM
same,IC50,ASPC-1,158 nM
same,IC50,Raji,105 nM
same,IC50,NCI-H226,479 nM
same,IC50,IGROV-1,78 nM
same,IC50,A2780,48 nM
same,IC50,A2780cp,117 nM
same,IC50,OVCAR-8,36 nM
same,IC50,BIN-67,68 nM
same,IC50,SCCOHT-1,341 nM
same,IC50,OVCAR-3,65 nM
same,IC50,SKOV-3,113 nM
same,IC50,COV434,47 nM
same,IC50,CT26,1320 nM
same,IC50,GL261,372 nM
same,IC50,MC38,128 nM
same,IC50,4T1,36 nM
same,IC50,L1210,59 nM
